The target in experiment [1] is T1, Tyrosine-protein phosphatase non-receptor type 1 (Homo sapiens, UniProt P18031).
T1 sequence (P18031 whole entry): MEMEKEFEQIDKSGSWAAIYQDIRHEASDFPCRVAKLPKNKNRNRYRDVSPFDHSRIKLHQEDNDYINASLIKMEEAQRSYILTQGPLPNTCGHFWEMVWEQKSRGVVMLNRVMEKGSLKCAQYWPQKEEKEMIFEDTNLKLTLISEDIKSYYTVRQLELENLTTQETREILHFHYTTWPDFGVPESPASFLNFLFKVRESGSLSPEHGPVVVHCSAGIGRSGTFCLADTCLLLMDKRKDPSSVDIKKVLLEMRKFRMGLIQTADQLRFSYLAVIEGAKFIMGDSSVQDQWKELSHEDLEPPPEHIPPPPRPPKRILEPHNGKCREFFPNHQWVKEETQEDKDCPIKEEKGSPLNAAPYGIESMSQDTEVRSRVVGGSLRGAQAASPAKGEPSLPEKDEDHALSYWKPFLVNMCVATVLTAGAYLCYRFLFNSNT
In words: Inhibition of human recombinant PTP1B using p-nitrophenyl phosphate as substrate by spectrophotometric analysis.

Experiment [2] concerns the target T1, Tyrosine-protein phosphatase non-receptor type 1. The experiment in a line: Non-competitive inhibition of human recombinant PTP1B using p-nitrophenyl phosphate as substrate by spectrophotometry based Lineweaver-Burk plot.
The target is the same in experiment [3]. The experiment in a line: Competitive inhibition of human recombinant PTP1B using p-nitrophenyl phosphate as substrate by spectrophotometry based Lineweaver-Burk plot.

One may read the IC50 as the concentration that gives 50% inhibition. One may read the Ki as a dissociation constant, usually derived from enzyme kinetics or from competition with a known ligand. As to `CC(C)=CCc1c(O)c(CC=C(C)C)c2occ(-c3ccc(O)c(O)c3)c(=O)c2c1O`, in experiment [1], the IC50 worked out at 2.4 µM. Moreover, the Ki in experiment [2] was 2.5 µM.

In the case of `COc1ccc(CCC(=O)C2=C(O)C(CC=C(C)C)=C3OC(C)(C)C=CC3(CC=C(C)C)C2=O)cc1O` (stereo unspecified), the Ki in experiment [3] is 17.6 µM. In addition, the IC50 in experiment [1] stood at 29.4 µM.

As for `COc1ccc(CC/C(O)=C2\C(=O)C(CC=C(C)C)=C3OC(C)(C)C=CC3(CC=C(C)C)C2=O)cc1O` (stereo unspecified), the Ki in experiment [3] came out at 12.3 µM. In experiment [1], the half-maximal inhibitory concentration (IC50) is 20.2 µM.

As to `COc1ccc(CCC(=O)C2=C(O)C(CC=C(C)C)=C3OC(C)(C)C=CC3(CC=C(C)C)C2=O)cc1` (stereo unspecified), the Ki in experiment [3] worked out at 3.4 µM. In experiment [1], the IC50 came out at 6.5 µM.

`CC(C)=CCc1c(O)c(CC=C(C)C)c2occ(-c3ccc(O)cc3)c(=O)c2c1O`: the IC50 in experiment [1] turned out to be 9.3 µM. In experiment [2], the Ki amounted to 9.6 µM.

Regarding `CC(C)=CCc1c2c(c(O)c3c(=O)c(-c4ccc(O)c(O)c4)coc13)C=CC(C)(C)O2` [AURICULASIN], the half-maximal inhibitory concentration (IC50) in experiment [1] amounted to 3.6 µM. The inhibition constant Ki in experiment [2] came to 4.4 µM.

In the case of `COc1cc(-c2coc3c(CC=C(C)C)c(O)c(CC=C(C)C)c(O)c3c2=O)ccc1O` [FLEMINGSIN], the 50% inhibitory concentration (IC50) in experiment [1] amounted to 17.4 µM. Moreover, in experiment [2], the Ki turned out to be 19.2 µM.

Regarding `CC(C)=CCc1c2c(c3occ(-c4ccc(O)cc4)c(=O)c3c1O)C=CC(C)(C)O2` [OSAJIN], in experiment [1], the IC50 was determined as 23.6 µM. The Ki in experiment [2] worked out at 29.9 µM.
